Experiments:
B16F10 cell tyrosinase = target: T1, B16F10 cell tyrosinase (Mus musculus, UniProt P11344); test: In situ cellular tyrosinase activity assay using B16F10 cells; assay type: cell-based, murine
T1 construct: endogenous in cells; host or cells: B16F10 murine cells, stimulated with α-MSH and IBMX
T1 sequence (P11344 19-533): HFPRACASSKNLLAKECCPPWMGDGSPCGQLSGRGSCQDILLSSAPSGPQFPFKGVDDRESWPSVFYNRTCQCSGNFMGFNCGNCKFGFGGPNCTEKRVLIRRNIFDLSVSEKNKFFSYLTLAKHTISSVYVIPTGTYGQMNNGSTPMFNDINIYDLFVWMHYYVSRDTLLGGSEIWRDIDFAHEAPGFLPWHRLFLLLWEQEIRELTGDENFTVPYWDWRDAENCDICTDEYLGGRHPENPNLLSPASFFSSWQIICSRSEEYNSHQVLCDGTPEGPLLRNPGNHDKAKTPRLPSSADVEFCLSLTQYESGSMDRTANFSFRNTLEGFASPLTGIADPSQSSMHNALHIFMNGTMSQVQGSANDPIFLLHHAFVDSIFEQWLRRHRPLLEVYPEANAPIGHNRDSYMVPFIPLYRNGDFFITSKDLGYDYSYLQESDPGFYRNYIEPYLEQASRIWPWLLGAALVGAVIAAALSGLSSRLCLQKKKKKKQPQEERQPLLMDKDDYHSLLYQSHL
Experimental: After 72 h of incubation, the cells were treated with an excessive amount of L-dopa for 2 h, and then the melanin-stained cells were photographed, and the pigmented areas of the cells were determined using an ATTO CS Analyzer (ATTO, Tokyo, Japan).
B16F10 (3 × 10^3 cells/well) cells in a 24-well plate were incubated for 24 h in a 5% CO2 incubator maintained at 37 °C. […] Stimulators (α-MSH and IBMX; 1 μM and 200 μM, respectively) were exposed to cells 1 h after treatment with the test sample, and the cells were incubated for 72 h in a 5% CO2 incubator. The cells were fixed for 40 min using paraformaldehyde solution (4%) (Sigma-Aldrich, St. Louis, MO, USA), washed with PBS (pH 7.4), and permeabilized for 2 min using Triton X-100 (0.1%). After washing twice with PBS, each well was exposed to L-dopa solution (500 μL; 2 mM). After incubation for 2 h, images of the cells stained with excess melanin were obtained using a camera connected to a microscope (Motic, Hong Kong).

mushroom tyrosinase = mushroom tyrosinase (Agaricus bisporus, UniProt C7FF04); test: Mushroom tyrosinase inhibitory activity assay (L-dopa or L-tyrosine as substrate); assay type: biochemical
Experimental: In the inhibition experiments, L-dopa and L-tyrosine were used as enzyme substrates.
The plate was incubated at 37 °C for 30 min, and absorbance of dopachrome formation was recorded spectrophotometrically at 475 nm using a VersaMax® Elisa (VE) microplate reader (Molecular Devices, San Jose, CA, USA) to determine tyrosinase inhibition activity. A VE microplate reader was used in all subsequent experiments to measure optical density. All experiments were carried out independently three times.

B16F10 cells = test: Cellular melanin content assay using B16F10 cells; assay type: cell-based, murine
Experimental: After 72 h of incubation, the melanin content was evaluated by measuring the optical density at 405 nm.
The plate was incubated in a CO2 incubator for 1 h. Each well was treated with stimulators (α-MSH and IBMX; 1 μM and 200 μM, respectively) and incubated in a CO2 incubator for 72 h. The incubated cells were rinsed twice with PBS (pH 7.4). 1N–NaOH solution (100 μL) was added to each well and warmed at 60 °C for 1 h. The lysates were transferred to each well of a 96-well plate. The optical density was measured at 405 nm.

[1] = ABTS radical scavenging assay; conditions: 100 μM
Experimental: The ABTS^+ radical solution was obtained by mixing ABTS and potassium persulfate, an oxidizing reagent, and test samples (1–13 and Trolox [positive control]; final concentration: 100 μM) were added to determine their ABTS^+ radical scavenging ability by measuring the optical density at 732 nm.
To prepare ABTS^•+ stock solution, equal amounts of ABTS (14 mM aqueous solution) and K2S2O8 (4.9 mM aqueous solution) were mixed and stored in the dark at 18 °C for 15 h. The prepared ABTS^•+ solution was diluted in ethanol to adjust the absorbance to 0.7 ± 0.01 at 732 nm. The test samples (Trolox [positive control] and compounds 1–13) were dissolved in a cosolvent of ethanol and DMSO (10:1 [v/v]). The adjusted ABTS^•+ solution (90 μL) and test sample (10 μL) were added to each well of a 96-well plate, and the plate was stored in a dark place at 18 °C for 2 min. The optical density was measured at 732 nm every min for 10 min. The test sample solutions were tested at a final concentration of 100 μM. The percentage of radical scavenging activity was calculated as follows: % Radical scavenging activity = 100 × [(Absc − Abst)/Absc], where Abst and Absc are optical densities of the test sample and control, respectively.

[2] = DPPH radical scavenging assay; conditions: 500 μM; 30 min in the dark
Experimental: DPPH radical scavenging activity was determined by mixing the DPPH solution with compounds 1–13, leaving it in the dark at 20 °C for 30 min, and measuring the optical density at 517 nm. Ascorbic acid (AA) was used as a positive control to compare the scavenging activity. All test samples were used at 500 μM.
An aliquot (20 μL) of test sample (compounds 1–13 and ascorbic acid [positive control]; 5 mM) in DMSO and 180 μL DPPH solution (0.2 mM) in methanol were mixed in each well of a 96-well plate. The mixed solution was kept in the dark at 18 °C for 30 min. A VE microplate reader was used to measure the optical density of each well at 517 nm.

Sequence of mushroom tyrosinase (C7FF04 2-392): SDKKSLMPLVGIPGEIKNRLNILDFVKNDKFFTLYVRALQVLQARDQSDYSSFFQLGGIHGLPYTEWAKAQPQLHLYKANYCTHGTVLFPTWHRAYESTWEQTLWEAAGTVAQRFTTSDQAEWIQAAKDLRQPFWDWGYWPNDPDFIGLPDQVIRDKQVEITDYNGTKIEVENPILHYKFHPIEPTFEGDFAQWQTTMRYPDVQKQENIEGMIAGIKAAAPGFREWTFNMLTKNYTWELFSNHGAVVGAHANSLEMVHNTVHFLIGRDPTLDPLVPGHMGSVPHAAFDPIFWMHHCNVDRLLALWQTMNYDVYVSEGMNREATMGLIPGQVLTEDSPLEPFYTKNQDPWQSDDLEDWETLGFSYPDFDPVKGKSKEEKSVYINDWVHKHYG

Oc1ccc(-c2nc3cc4c(cc3s2)OCO4)c(O)c1 [Compound 9, 4-([1,3]Dioxolo[4′,5′:4,5]benzo[1,2-d]thiazol-6-yl)benzene-1,3-diol]
melanin production-inhibitory potency in situ, comparison (B16F10 cell tyrosinase; 5 μM): greater than that of 5 | number of cells strongly stained with melanin (in situ tyrosinase) (B16F10 cell tyrosinase; 1, 2, and 5 μM, IBMX plus α-MSH, 72 h, L-dopa 2 h): evidently reduced the number of cells strongly stained with melanin | IC50 values regardless of the substrate used (in words) (mushroom tyrosinase; L-dopa and L-tyrosine): nanomolar | inhibition at 2 µM (mushroom tyrosinase; substrate L-dopa, 2.0 μM, read-out: Inhibition (%) measured at 2.0 μM (converted)): 76.1% | inhibition at 0.4 µM (mushroom tyrosinase; substrate L-tyrosine, 0.4 μM, read-out: Inhibition (%) measured at 0.4 μM (converted)): 71.8% | melanin content (B16F10 cells; 1, 2, and 5 μM, IBMX 200 μM plus α-MSH 1 μM, 72 h): significantly reduced the stimulator-induced melanin contents | melanin production inhibition compared with kojic acid (B16F10 cells; same concentration (5 μM)): inhibited melanin production more potently than kojic acid | ABTS^+ radical scavenging activity (inhibition rate) [1]: 96% | DPPH radical scavenging (inhibition) [2]: 85%
